# Tests used:
# Type in all cases: in vivo, human
# [1] = tested on: patients with symptomatic non-obstructive HCM (nHCM) or HCM with MVO; assay: Phase 2 trial (Example 2): echocardiography (LVEF, diastolic function)
# Method: (§1) Echocardiograms obtained on day 1 of treatment, at weeks 2, 4, 6, and 10 of treatment, and two weeks after the last dose were analyzed for several key structural and physiologic metrics; measurements of N-terminal prohormone of brain natriuretic peptide (NT-proBNP), and cardiac troponin I were also monitored. Ambulatory cardiac monitoring was conducted one week before day 1 of treatment and at week 9.
# The secondary PD endpoints of the study were: Slope of the relationship of the plasma concentration of CK-3773274 to the change from baseline in the resting LVEF.
# Echocardiography parameters were evaluated by the core laboratory at baseline and during treatment at the Weeks 2, 4, 6, and 10 and after a 2-week washout at Week 12 (follow-up visit).
# (§2) The exploratory PD endpoints included but were not limited to: (i) The relationship of plasma concentration ranges of CK-3773274 to LVEF, LVFS, global longitudinal strain (GLS); (ii) Observed values and change from baseline in the echocardiography parameters described in Table 13 and evaluated by the core laboratory during treatment at Weeks 2, 4, 6, 10, and 12; (iii) Change in NT-proBNP from baseline to Week 10; (iv) Change in hs-cTnI from baseline to Week 10; (v) Proportion of patients with LVEF ≥50% and ≥50% reduction from baseline NT-proBNP.
# [2] = tested on: patients with symptomatic non-obstructive HCM (nHCM) or HCM with MVO; assay: Phase 2 trial (Example 2): NYHA Functional Classification
# Source text: Other exploratory endpoints included: (i) Change in NYHA Functional Classification from baseline to Week 10; and (ii) For patients with baseline NYHA Class III disease, percentage with improvement to NYHA Class I or II disease at Week 10.
# [3] = Phase 1 plasma pharmacokinetics, multiple-ascending dose (MAD) cohorts; conditions: for AUC24 / Cmax / Tmax: Day 1; for AUC24 / Cmax / AUCtau / Cmax, ss: geometric mean; for AUC24 / Cmax / Tmax / AUCtau / Cmax, ss / CLss/F / t1/2 / Tmax, ss: n = 6; for Tmax / Tmax, ss: median; for CLss/F / t1/2: mean ± SD
# Method: Multiple-ascending dose (MAD) cohorts. The MAD cohorts also used a randomized, double-blind, placebo-controlled, sequential design.
# Pharmacokinetic analyses. For all study groups, blood samples for PK assessment were obtained pre-dose, up to 12 times daily on day 1, and then at regular intervals throughout the study. Blood samples were collected according to the following schedule: SAD Cohorts: Day 1: pre-dose and 0.25, 0.5, 1, 1.5, 2, 2.5, 3, 4, 6, 8, 12, 16, 24, 36, 48, 72, 96, and 216 h post dose. MAD Cohorts (14-day Dosing): Day 1: pre-dose and 0.25, 0.5, 1, 1.5, 2, 2.5, 3, 4, 6, 8, and 12 h post dose; Days 2, 4, 5, 6, and 9: pre-dose (corresponding to trough samples following dosing on days 1, 3, 4, 5, and 8) and 1.5 h post dose; Days 3, 7, 8, 10, 11, 12, and 13: pre-dose (corresponding to trough samples following dosing on days 2, 6, 7, 9, 10, 11, and 12); Day 14: pre-dose and 0.25, 0.5, 1.5, 2, 2.5, 3, 4, 6, 8, 12, 16, 24, 36, 48, 72, and 168 h post dose. MAD Cohort (17-Day Dosing): Day 1: pre-dose and 0.25, 0.5, 1, 1.5, 2, 2.5, 3, 4, 6, 8, and 12 h post dose; Days 2, 4, 5, 6, and 9: pre-dose (corresponding to trough samples following dosing on days 1, 3, 4, 5, and 8) and 1.5 h post dose; Days 3, 7, 8, 10, 11, 12, 13, 14, 15, and 16: pre-dose (corresponding to trough samples following dosing on days 2, 6, 7, 9, 10, 11, and 12); Day 17: pre-dose and 0.25, 0.5, 1.5, 2, 2.5, 3, 5, 7, 9, 12, 24, 36, 48, 72, and 168 h post dose. CYPD6-PM Cohort: Day 1: pre-dose and 0.25, 0.5, 1, 1.5, 2, 2.5, 3, 4, 6, 8, 12, 16, 24, 36, 48, 72, 96, 216, 312, and 552 h post dose. Food-Effect Cohort: Day 1: pre-dose and 0.25, 0.5, 1, 1.5, 2, 2.5, 3, 4, 6, 8, 12, 16, 24, 36, 48, 72, 96, 144, and 216 h post dose. Standard non-compartmental methods were used to calculate PK parameters using Phoenix® WinNonlin® Version 7.0; actual sample collection times were utilized.
# For the MAD cohort, the parameters were AUC24 and Cmax on day 1, plus AUC to the end of the dosing period (AUCtau) and Cmax on day 14 or 17. The statistical linear relationship between the In-transformed PK parameters and the In-transformed dose was verified by including the quadratic (ln Dose)^2 and cubic (ln Dose)^3 effects. […] The dose-proportionality analysis was performed using SAS® PROC MIXED.
# An analysis of variance (ANOVA) model was conducted separately for each dose level; day was included as the fixed effect. Helmert contrasts were developed such that each time-point was compared with the mean of the subsequent time-points.
# [4] = tested on: patients with symptomatic non-obstructive HCM (nHCM) or HCM with MVO; assay: Phase 2 trial (Example 2): cardiac biomarkers NT-proBNP and hs-cTnI
# Method: as §1, §2
# For select PD measurements with statistical distributions likely to depart from normal, proportional change from baseline was evaluated.
# [5] = end of treatment (week 10), second interim
structure (smiles),measurement,setting,value
"CCc1nc(-c2ccc3c(c2)CC[C@H]3NC(=O)c2cnn(C)c2)no1 [aficamten, (R)—N-(5-(5-ethyl-1,2,4-oxadiazol-3-yl)-2,3-dihydro-1H-inden-1-yl)-1-methyl-1H-pyrazole-4-carboxamide]",Doppler measures of diastolic function (lateral e′; lateral E/e′; septal E/e′),"[1]; baseline to week 10, second interim",generally improved
same,change in LVEF from baseline to Week 10,"[1]; second interim, N = 41",−5.5%
same,patients with a change of ≥1 NYHA Class,"[2]; 22 of 41 patients, interim",54%
same,patients with functional improvement of ≥1 NYHA class,"[2]; Week 10, second interim, p=0.011 vs assumed 37% placebo effect",56%
same,patients achieving NYHA Class 1 (asymptomatic),"[2]; by Week 10, second interim",28%
same,patients who improved from NYHA Class II to I,[2]; interim,8 patients
same,patients who improved from NYHA Class III to I,[2]; interim,4 patients
same,patients who improved from NYHA Class III to II,[2]; interim,12 patients
same,AUC24,[3]; MAD 5 mg qd × 14 Days,278 ng·h/mL
same,Cmax,[3]; MAD 5 mg qd × 14 Days,28.0 ng/mL
same,Tmax,[3]; MAD 5 mg qd × 14 Days,1.3 h
same,AUCtau,"[3]; MAD 5 mg qd, Day 14",1320 ng·h/mL
same,"Cmax, ss","[3]; MAD 5 mg qd, Day 14",69.0 ng/mL
same,CLss/F,"[3]; MAD 5 mg qd, Day 14",3.9 ± 0.9 L/h
same,t1/2,"[3]; MAD 5 mg qd, Day 14",86.4 ± 11.9 h
same,"Tmax, ss","[3]; MAD 5 mg qd, Day 14",2.8 h
same,Tmax,[3]; MAD 7.5 mg qd × 17 Days,0.8 h
same,AUCtau,"[3]; MAD 7.5 mg qd, Day 17",2518 ng·h/mL
same,"Cmax, ss","[3]; MAD 7.5 mg qd, Day 17",147.6 ng/mL
same,CLss/F,"[3]; MAD 7.5 mg qd, Day 17",3.1 ± 0.7 L/h
same,t1/2,"[3]; MAD 7.5 mg qd, Day 17",76.9 ± 14.5 h
same,AUC24,[3]; MAD 10 mg qd × 14 Days,547 ng·h/mL
same,Cmax,[3]; MAD 10 mg qd × 14 Days,54.4 ng/mL
same,Tmax,[3]; MAD 10 mg qd × 14 Days,1.0 h
same,AUCtau,"[3]; MAD 10 mg qd, Day 14",2632 ng·h/mL
same,"Cmax, ss","[3]; MAD 10 mg qd, Day 14",141.2 ng/mL
same,CLss/F,"[3]; MAD 10 mg qd, Day 14",3.9 ± 0.8 L/h
same,t1/2,"[3]; MAD 10 mg qd, Day 14",79.8 ± 14.1 h
same,"Tmax, ss","[3]; MAD 10 mg qd, Day 14",2.5 h
same,steady state achieved by end of day,[3]; MAD 5-mg and 7.5-mg doses,12 days
same,steady state achieved by end of day,[3]; MAD 10-mg dose,10 days
same,time to steady state,[3]; once-daily dosing,≤ 2 weeks
same,"symptoms, NT-proBNP and hs-Troponin I in patients with mid-ventricular obstruction (MVO)","[4]; 7 patients with MVO, second interim",All patients in this subgroup showed symptom improvement and reduction in both NT-proBNP and hs-Troponin I levels
same,"cardiac biomarkers (NT-proBNP, hs-cTnI) after washout",[4]; after the 2-week washout,rebounded upwards off drug
same,"reduction of NT-proBNP (geometric mean, proportional change from baseline)","[4]; end of treatment (week 10), interim, p<0.0001",56%
same,reduction of hs-cTnI (proportional to baseline),"[4]; end of treatment (week 10), interim, p<0.05",21%
same,mean (SE) reduction of NT-proBNP,[4]; [5],-870 pg/mL
same,mean (SE) reduction of hs-cTnI,[4]; [5],-24.8 ng/L
same,reduction of NT-proBNP,"[4]; end of treatment (week 10), second interim, p<0.0001",55%
same,reduction of hs-cTnI,"[4]; end of treatment (week 10), second interim, p<0.05",21%
